The values below are quoted from earlier work in patent US7378519B2, “Adduct of topiramate and tramadol hydrochloride and uses thereof” (Cilag GmbH International, priority 2002, dated 2008).

Each structure is given as a SMILES string. Where a name gives a salt, the structure may show the parent alone.

This series concerns Chung model of post-nerve constriction injury. To be noted: each drug alone, as the dose is escalated.

With `CC1(C)O[C@@H]2[C@@H](CO[C@@]3(COS(N)(=O)=O)OC(C)(C)O[C@@H]23)O1` [topiramate, 2,3:4,5-bis-O-(1-methylethylidene)-β-D-fructopyranose sulfamate], the “MPE (Maximum Possible Effect) reached” value is reported as 100 % MPE. On to `COc1cccc(C2(O)CCCCC2CN(C)C)c1` (single isomer, unassigned) [tramadol hydrochloride, (1R,2R or 1S,2S)-2-[(dimethylamino)methyl]-1-(3-methoxyphenyl)-cyclohexan-1-ol], for which the “MPE (Maximum Possible Effect) reached” value is on record as 100 % MPE.
